Results from US20120058133A1, “INHIBITION OF TRNA SYNTHETASES AND THERAPEUTIC APPLICATIONS THEREOF” (President and Fellows of Harvard College, priority 2009, published 2012).
“Also recorded” adds a separate entry of the source.

How the values were obtained:
[1] = system: murine CD4+ CD25− T cells; assay: Th17 differentiation of activated CD4+ CD25− T cells (TGFβ plus IL-6; IL-17+ IFNγ− cells); assay type: cell-based, mouse; details: for reversal of Th17 inhibition by threonine: 6 nM borrelidin, 0.5 mM threonine
Experimental: (§1) Purified CD4^+ CD25^− T cells were activated in vitro as previously described (Djuretic et al., Nat. Immunol. 8:145, 2007) using 0.3 μg/ml hamster anti-mouse CD3 (clone 145-2C11) (ATCC—Manassas, Va.) and 0.5 μg/ml hamster anti-mouse CD28 (BD Pharmingen—San Jose, Calif.). Activated cell cultures were differentiated using the following combinations of cytokines and antibodies: iTreg-recombinant human TGFβ1 (3 ng/ml—R&D systems, Minneapolis, Minn.), Th17-TGFβ1 (3 ng/ml) plus recombinant mouse IL-6 (30 ng/ml—R&D systems). Th1 and Th2 differentiation was performed as previously described (Djuretic et al., Nat. Immunol. 8:145, 2007). Human IL-2 supernatant (National Cancer Institute) was used in culture at 0.01 U/ml and was added at 48 hours-post activation when T cells were split into tissue culture wells lacking CD3 and CD28 antibodies, with the exception of Th17 cultures that were maintained in the absence of exogenous IL-2. CD8^+ T cells were activated with 1 μg/ml anti-CD3 and 1 μg/ml anti-CD28 and were expanded in 0.1 U/ml IL-2 until day 6 post activation. CD43-depleted B cells were activated in vitro by culturing with 25 μg/ml LPS (Sigma—St. Louis, Mo.) for 3-4 days in the presence or absence of TGFβ. All reagents (see below) were added at the time of T cell activation and again at 48 hours post activation unless indicated otherwise. For some experiments, purified CD4^+ CD25^− T cells, CD8^+ T cells or B cells were labeled with 1 μM CFSE (Invitrogen) prior to activation in accordance with manufacturer's instructions. Human T cell activation was performed by plating purified monocytes in a 96-well flat bottom plate at a concentration of 2×10^4 cells per well in complete medium overnight. 10^5 purified human memory T cells were added to monocyte cultures in the presence of soluble anti-CD3/anti-CD28 beads (Dynabeads, Invitrogen). T cells were expanded in the presence HF or MAZ1310 for up to 6 days.
MAZ1310 (Kamberov, Ph.D. Dissertation, Harvard University, 2008) was generated by chemical derivatization of halofuginone and was used at equal concentrations as a negative control. HF and MAZ1310 were prepared as 100 mM stock solutions in DMSO and diluted to the indicated concentrations. SB-431542 (Inman et al., Mol. Pharmacol. 62:65, 2002) (Tocris bioscience—Ellisville, Mo.) was prepared as a 10 mM stock solution in DMSO and was used in culture at 10 μM. L-tryptophanol was prepared as a 20 mM stock solution in 0.1 M NaOH, pH 7.4 and was used at 0.2 mM. For amino acid starvation experiments, T cells were activated and differentiated as above in D-MEM medium without L-cysteine and L-methionine (Invitrogen—Carlsbad, Calif.), or D-MEM medium without L-leucine. Stocks containing 20 mM L-cysteine (Sigma—St. Louis, Mo.) plus 10 mM L-methionine (Sigma), or 400 mM L-leucine (Sigma) were prepared in ddH2O, pH 1.0 and were added to medium at the indicated concentrations.
(§2) For detection of intracellular cytokines in murine cells, cultured T or B cells were stimulated with 10 nM PMA (Sigma) and […] (Sigma) for 4-5 hours in the presence of 10 mM brefeldin A (Sigma). Stimulated cells were harvested, washed with PBS and fixed with PBS plus 4% paraformaldehyde at room temperature for 20 minutes. Cells were then washed with PBS, permeabilized with PBS supplemented with 1% BSA and 0.5% saponin (Sigma) at room temperature for 10 minutes before cytokine-specific antibodies were added and incubated with cells for an additional 20 minutes at room temperature.

[2] = system: murine CD4+ CD25− T cells, CD8+ T cells, B cells; assay: T and B cell activation, proliferation, cytokine production and Th1/Th2/iTreg differentiation; assay type: cell-based, mouse; details: 3 ng/ml Borrelidin
Experimental: FIG. 2A, Left, is a graph showing dose response analyses performed on activated carboxyfluorescein succinimidyl ester (CFSE)-labeled CD4^+CD25^− T cells in the presence of DMSO, 40 nM MAZ1310, or increasing concentrations of halofuginone (HF) (1.25-40 nM). CFSE dilution and cell surface CD25 expression were determined 48 hours after activation. Intracellular cytokine production was determined on day 4 or 5 following restimulation with phorbol myristate acetate (PMA) and ionomycin. […] FIG. 2A, Right is a graph showing dose-response analyses of HF effects on CD8^+ T cell or B cell function. Cells were activated in the presence of DMSO, 40 nM MAZ1310, or increasing concentrations of HF (1.25-40 nM). CFSE dilution, cell surface CD25 expression, and intracellular cytokine production were determined as above 2-5 days after activation.
At approximately 10-fold higher concentrations (>20 nM), HF induced a general inhibition of T and B cell activation, proliferation, and effector function (FIG. 2A, 2B).
as §1
Cytokines secreted into media supernatant were measured using the mouse Th1/Th2 cytometric bead array (CBA—BD Pharmingen) in accordance with manufacturers instructions. Briefly, CD4+ CD25− T cells were activated in anti-CD3/anti-CD28-coated tissue culture wells (see above) and supernatants were collected at the indicated times.
as §2, with “temperature. […]” for “temperature.”

[3] = system: GCN2 phosphorylation / AAR pathway; assay: AAR pathway activation in MEFs (GCN2, eIF2a phosphorylation, CHOP); assay type: cell-based, mouse
Experimental: FIG. 24. Activation of the AAR in cells by HF/FF occurs through inhibition of proline utilization. FIG. 24A is a gel showing HF-induction of the AAR pathway is reversed by proline. MEFs were treated with the indicated concentration of HF or FF in the presence or absence of 2 mM Proline for 2 hours (left) or treated with 1 μM borrelidin in the presence or absence of 2 mM Threonine for 2 hours (right). Cells were lysed and assessed by anti-pGCN2 or anti-GCN2 Western blot. Data are representative of three separate experiments.
FIG. 24B is a gel showing HF induction of eIF2a phosphorylation and CHOP expression is GCN2 dependent. Wild Type or GCN2−/− MEFs were treated with 50 nM HF in the presence or absence of 2 mM proline. Cells were lysed at 2 hours post-HF addition (peIF2a) or 6 hours post-HF addition (CHOP) and analyzed for phosphoprotein or total protein levels by Western blot.

[4] = system: mouse and human fibroblasts; assay: Collagen protein production in mouse and human fibroblasts; assay type: cell-based; details: data not shown

C[C@@H]1C[C@H](C)C[C@H](C)[C@@H](O)CC(=O)O[C@H]([C@@H]2CCC[C@H]2C(=O)O)C/C=C/C=C(/C#N)[C@H](O)[C@@H](C)C1 [borrelidin]
Th17 cell differentiation ([1]; 6 nM (3 ng/mL) borrelidin): Selectively Inhibits Th17 Differentiation; also recorded: inhibited Th17 cell differentiation
reversal of Th17 inhibition by threonine [1]: rescued by its cognate amino acid
reversal of Th17 inhibition by threonine ([1]; listed as Borrelidin): reversed by the addition of threonine
differentiation of Th1, Th2, or iTreg cells [2]: without perturbing the differentiation of Th1, Th2, or iTreg cells
reversal of GCN2 phosphorylation by cognate amino acid ([3]; 2 mM proline or 2 mM threonine): prevented by addition of an excess of its cognate amino acid threonine
GCN2 phosphorylation in fibroblasts ([3]; 2 hours, borrelidin 1 μM): stimulate GCN2 phosphorylation
production of collagen protein [4]: inhibited by borrelidin-treatment and rescued by the addition of threonine
